US20070078262A1, “Thiomorpholino steroid compounds, the use thereof for the preparation of meiosis-regulating medicaments and method for the preparation thereof” (SCHERING AKTIENGESELLSCHAFT, priority 2003, published 2007)
In brackets after ≈: the same amount, converted by molar mass.

How the values were obtained:
[1] = system: Cumulus Enclosed Oocytes (CEOs); experiment: Cumulus enclosed oocyte assay (meiosis activation in Hx-medium); assay type: cell-based, mice (C57BL/6J×DBA/2J F1)
Excerpt: Activation of MI arrested oocytes can be assessed by the disappearance of the germinal vesicle (GV). The disappearance of the GV, called germinal vesicle breakdown (GVB) is followed by the extrusion of the first polar body (PB) (C. Grøndahl, J. L. Ottesen, M. Lessi, P. Faarup, A. Murray, F C Grønvald, C. Hegele-Hartung, I. Ahnfelt-Rønne, “Meiosis-activating sterol promotes resumption of meiosis in mouse oocytes cultured in vitro in contrast to related oxysterols”, Biol. Reprod., 58, 1297-1302 (1998); C. Hegele-Hartung, J. Kuhnke, M. Lessi, C. Grøndahl, J. Ottesen, H. M. Beier, S. Eisner, U. Eichenlaub-Ritter, “Nuclear and cytoplasmic maturation of mouse oocytes after treatment with synthetic meiosis-activating sterol in vitro”, Biol. Reprod., 61, 1362-1372 (1999)).
Cumulus Enclosed Oocytes (CEOs) were obtained from immature female mice (C57BL/6J×DBA/2J F1) weighing 13-16 grams, that were kept under controlled temperature (20-22° C.), light (lights on 06:00-18:00) and relative humidity (50-70%). The mice received an intra-peritoneal injection of 0.2 ml gonadotropins containing 20 IU FSH. 48 hours later the animals were killed by cervical dislocation. The ovaries were dissected out and the oocytes were isolated in Hx-medium (see below) under a stereomicroscope by manual rupture of the follicles using a pair of 27-gauge needles. Cumulus enclosed oocytes displaying an intact germinal vesicle were placed in α-minimum essential medium (α-MEM without ribonucleosides supplemented with 8 mg/ml Human Serum Albumin (HSA), 0.23 mM pyruvate, 2 mM glutamine, 100 IU/ml penicillin and 100 μg/ml streptomycin). To maintain the oocytes in the germinal vesicle stage this medium was supplemented with 3 mM hypoxanthine, designated as Hx-medium.
The CEOs (35-45 CEOs in 0.4 ml Hx-medium) were cultured in a humidified atmosphere of 5% CO2 in air for 24 hours at 37° C. One control well (identical medium with no addition of test compound) was always cultured simultaneously with test wells.
By the end of the culture period the number of CEOs with germical vesicle (GV), germinal vesicle breakdown (GVB) and polar bodies (PB), respectively, were counted. The % GVB, defined as the percentage of CEOs undergoing GVB per total number of CEOs in that well, was calculated as: % GVB=(number of GVB+number of PB/total number of CEOs)×100
The % PB was defined as the percentage of CEOs displaying one extruded polar body per total number of CEOs in that well.
For each compound two experiments were performed and the results compared to Hx-medium as a control and FF-MAS at a concentration of 10 μM.

[2] = system: in vitro fertilized ova (2-cell embryos); experiment: Retransfer study / fertility trial (in vitro fertilized 2-cell embryos transferred into foster mothers); assay type: in vivo, mice; conditions: for No. of Implantation Spots: Odds / No. of Viable Fetuses: Odds: successes divided by failures; for No. of Implantation Spots: Failures: transferred ova minus implantation spots; for No. of Viable Fetuses: Failures: transferred ova minus viable fetuses; for Odds Ratio for comparison to FF-MAS, No. of Implantation Spots / Odds Ratio for comparison to FF-MAS, No. of Viable Fetuses: versus FF-MAS 10 μM
Description: In vitro fertilization was performed as described above for the IVF experiment.
One day before the retransfer female recipient mice (foster mothers) in pro-estrus cycle state were mated with vasectomized males in order to trigger pseudogestation. One day later a vaginal check was performed. Animals with a positive, sperm-free vaginal plug (successful mating) entered the study. This day was designated day 0 of gestation (=day 0 after the sterile copulation, day 0 p.c.). […] 2-cell embryos were transferred into the right tube of the foster mothers on day 0 after the sterile copulation under anesthesia. The contra-lateral tube remained unused (check for pseudogestation). The foster mothers were sacrified on day 19 of gestation. The fetuses were removed and examined. The ovaries and uteri were removed immediately to record the number of implantation sites, viable and dead fetuses and resorptions. Apparently non-pregnant uteri were placed in a 10% aqueous solution of ammonium sulfide for about 10 min to stain possible implantation sites in the endometrium. The viable fetuses were individually weighed and their sex determined by inspection of their gonads.
In a fertility trial 269 mice were randomized into 6 groups and implanted with 7-10 in vitro fertilized ova. The in vitro fertilization took place in the presence of vehicle (group 1) or of a substance (groups 2 to 6).
The fertility raising effect of the substances in comparison to the vehicle control was of main interest. Moreover, an improvement compared to the substance FF-MAS was also investigated.
Variables of primary interest are the number of implantation spots and the number of viable fetuses.
The data for implantation spots as well as for viable fetuses have to be considered to have binary character, i.e. it can be expressed in rates or in a number of successes and failures with respect to the number of transferred ova. Therefore, methods as outlined by D. Collett: “Modelling Binary Data”, 2nd edition, Chapman & Hall/CRC, Boca Raton, constitute appropriate approaches to the data analysis.
The odds ratio of one group as compared to the other is defined as: odds ratio (group 1, group 2)=or1,2=odds (group 1)/odds (group 2)
where the odds of a group can be estimated by the number of successes divided by the number of failures in that group.
To reach statements about the significance of any findings, 95% confidence-intervals for the odds ratios are computed as: [ exp(log(or1,2)[…]1.96·se(log(or1,2))); exp(log(or1,2)+1.96·se(log(or1,2)))]
wherein se(log(or1,2)) is the standard error of the log odds ratio (see D. Collett (2003) for the corresponding formula).
As a basis for the computation of odds ratios, the number of successes (i.e., the number of implantation spots of number of viable fetuses) and failures (i.e., the number of transferred ova minus the number of implantation spots or number of viable fetuses) are computed for all groups.

physchem = conditions: water

Compound: C[C@H](CN1CCSCC1)[C@H]1CC=C2C3=C(CC[C@@]21C)[C@@]1(C)CC[C@H](O)C(C)(C)[C@@H]1CC3 [Compound IA, (20S)-20-[(thiomorpholin-4-yl)methyl]-4,4-dimethyl-5α-pregna-8,14-dien-3β-ol]
- efficiency of meiosis activation among the compounds tested ([1]; CEOs in the presence of Hx): the most efficient compound tested
- meiosis activation in CEOs monitored by GVB and PB (FIG. 2) ([1]; at 1 μM (p<0.01; n=10), 3 μM (p<0.05; n=7) and 10 μM (p<0.001; n=6)): significantly improved meiosis activation
- No. of Implantation Spots: Success ([2]; 1 μM): 120
- No. of Viable Fetuses: Success ([2]; 1 μM): 51
- Odds Ratio for comparison to vehicle control, No. of Implantation Spots ([2]; 1 μM): 1.51
- Odds Ratio for comparison to vehicle control, No. of Viable Fetuses ([2]; 1 μM): 1.70
- increase of the odds of a successful implantation versus vehicle control ([2]; 1 μM): 51%
- No. of Implantation Spots: Odds ([2]; 1 μM): 0.38
- No. of Viable Fetuses: Odds ([2]; 1 μM): 0.13
- No. of Implantation Spots: Failures ([2]; 1 μM): 317
- No. of Viable Fetuses: Failures ([2]; 1 μM): 386
- Odds Ratio for comparison to FF-MAS, No. of Implantation Spots ([2]; 1 μM): 1.27
- Odds Ratio for comparison to FF-MAS, No. of Viable Fetuses ([2]; 1 μM): 1.15
- No. of Implantation Spots: Success ([2]; 10 μM): 123
- No. of Viable Fetuses: Success ([2]; 10 μM): 40
- Odds Ratio for comparison to vehicle control, No. of Implantation Spots ([2]; 10 μM): 1.55
- Odds Ratio for comparison to vehicle control, No. of Viable Fetuses ([2]; 10 μM): 1.29
- better chance (odds) of a successful implantation versus vehicle control ([2]; 10 μM): 55%
- No. of Implantation Spots: Odds ([2]; 10 μM): 0.39
- No. of Viable Fetuses: Odds ([2]; 10 μM): 0.10
- No. of Implantation Spots: Failures ([2]; 10 μM): 317
- No. of Viable Fetuses: Failures ([2]; 10 μM): 400
- Odds Ratio for comparison to FF-MAS, No. of Implantation Spots ([2]; 10 μM): 1.30
- Odds Ratio for comparison to FF-MAS, No. of Viable Fetuses ([2]; 10 μM): 0.87
- shows significant improvement of odds versus vehicle control, number of implantation spots ([2]; 95% confidence interval of odds ratio, all doses tested): significant improvement of odds
- implantation rate per transferred 2-cell embryos (FIG. 4) ([2]; FF-MAS 10 μM, compound IA 1 μM and 10 μM): higher numbers
- increase of the odds for a success in terms of viable fetuses versus vehicle control ([2]; lower doses (1 μM)): 70%
- solubility (physchem): ~4 µg/mL (≈ 9.01 µM)
